Laboratory results taken from patent publication US20250361230A1, “LATS Inhibitors and Uses Thereof” (The USA, as Represented by the Secretary, Dept. of Heath …, priority 2022, published 2025).

What was measured:
[1] = target: T1, LATS1 Kinase-NanoLuc fusion in HEK-293 cells (Homo sapiens, UniProt O95835); experiment: NanoBRET target engagement assay in transfected HEK-293 cells, LATS1; format: cell-based; details: Table 28, NanoBRET, HEK-293 cells; read-out: LATS1 (Cellular) IC50
T1 construct: host or cells: HEK-293
T1 sequence (O95835 1-1130): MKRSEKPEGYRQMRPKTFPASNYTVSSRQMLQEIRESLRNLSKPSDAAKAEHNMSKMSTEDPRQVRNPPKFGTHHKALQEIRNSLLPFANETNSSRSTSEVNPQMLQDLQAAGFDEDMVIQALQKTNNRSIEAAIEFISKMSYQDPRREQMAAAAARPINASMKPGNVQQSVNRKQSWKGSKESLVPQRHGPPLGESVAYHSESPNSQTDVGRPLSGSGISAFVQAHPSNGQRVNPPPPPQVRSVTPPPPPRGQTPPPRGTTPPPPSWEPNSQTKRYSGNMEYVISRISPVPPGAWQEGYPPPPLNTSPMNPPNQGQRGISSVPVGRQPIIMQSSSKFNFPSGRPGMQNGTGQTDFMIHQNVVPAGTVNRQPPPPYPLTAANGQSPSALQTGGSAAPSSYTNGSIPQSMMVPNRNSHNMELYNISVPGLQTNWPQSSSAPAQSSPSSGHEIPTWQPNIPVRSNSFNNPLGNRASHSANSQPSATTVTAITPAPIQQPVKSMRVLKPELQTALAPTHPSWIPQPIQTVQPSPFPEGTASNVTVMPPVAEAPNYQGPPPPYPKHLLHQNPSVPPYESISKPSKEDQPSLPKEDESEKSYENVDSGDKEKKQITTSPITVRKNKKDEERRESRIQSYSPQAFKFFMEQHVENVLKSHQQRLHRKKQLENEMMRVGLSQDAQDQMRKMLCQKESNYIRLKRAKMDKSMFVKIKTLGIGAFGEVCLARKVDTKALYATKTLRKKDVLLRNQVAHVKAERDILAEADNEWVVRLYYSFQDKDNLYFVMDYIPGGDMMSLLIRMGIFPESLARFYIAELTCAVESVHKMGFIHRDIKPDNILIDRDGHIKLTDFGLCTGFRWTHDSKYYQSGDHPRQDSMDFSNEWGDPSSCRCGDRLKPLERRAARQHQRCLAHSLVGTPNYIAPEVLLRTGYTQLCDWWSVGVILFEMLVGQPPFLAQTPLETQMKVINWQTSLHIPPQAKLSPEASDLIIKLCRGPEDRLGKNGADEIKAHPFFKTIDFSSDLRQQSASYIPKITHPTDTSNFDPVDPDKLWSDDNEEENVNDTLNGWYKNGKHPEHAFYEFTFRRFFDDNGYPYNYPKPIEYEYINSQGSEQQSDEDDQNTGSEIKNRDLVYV
Excerpt: (§1) The NanoBRET™ assay measures kinase engagement in real time in the context of the intact cell. The assay uses a Kinase-NanoLuc® fusion vector expressing a kinase protein to which a luciferase tag has been added, a cell-permeant fluorescent NanoBRET™ tracer, a NanoLuc® substrate, and an extracellular NanoLuc® inhibitor. Upon expression of the luciferase-tagged kinase, cells will produce a strong BRET signal only in the presence of the NanoBRET™ tracer. The extracellular NanoLuc® inhibitor ensures that the BRET signal observed emanates only from live cells. Because the BRET signal has tight distance constraints, addition of the test compound will decrease the BRET signal if the compound competes with the NanoBRET™ tracer for binding to the kinase domain. Under the appropriate tracer conditions established by the manufacturer, quantitative intracellular affinity and relative potency can then be determined using Mass Action model equations.
(§2) HEK-293 cells were purchased from ATCC. FuGENEHD Transfection Reagent, Kinase-NanoLuc® fusion plasmids, Transfection Carrier DNA, NanoBRET™ Tracers and dilution buffer, NanoBRET™ Nano-Glo Substrate, Extracellular NanoLuc® Inhibitor were obtained from Promega.
(§3) Assays were conducted following Promega assay protocol with some modifications as described further below. HEK-293 Cells were transiently transfected with Kinase-NanoLuc® Fusion Vector DNA by FuGENE HD Transfection Reagent. Test compounds were delivered into 384 well assay plate by Echo 550 (Labcyte Inc, Sunnyvale, CA). Transfected cells were harvested and mixed with NanoBRET™ Tracer Reagent and dispensed into 384 well plates and incubated at 37° C. in 5% CO2 cell culture incubator for 1 hour. The NanoBRET™ Nano-Glo Substrate plus Extracellular NanoLuc® Inhibitor Solution were added into the wells of the assay plate and incubated for 2-3 minutes at room temperature. The donor emission wavelength (460 nm) and acceptor emission wavelength (600 nm) were measured in the EnVision plate reader. The BRET Ratios were calculated. BRET Ratio=[(Acceptor sample÷Donor sample)−(Acceptor no-tracer control÷Donor no-tracer control)]. The IC50 values of compounds were calculated with Prism GraphPad program.
(§4) • 1. Transient Transfection of HEK-293 Cells NanoLuc® Fusion Vector DNA • 1). Cultivate HEK-293 cells (70-80% confluence) appropriately prior to assay. Trypsinize and collect HEK-293 cells. • 2). Prepare lipid: DNA complexes as follows: • a. Prepare a […] solution of DNA in Opti-MEM™ without serum that consists of the following ratios of carrier DNA and DNA encoding NanoLuc® fusion. 9.0 µg/mL of Transfection Carrier DNA, […] of NanoLuc® fusion vector DNA and 1 mL of Opti-MEM™ without phenol red. Mix thoroughly. • b. Add 30 μl of FuGENE HD Transfection Reagent into each milliliter of DNA mixture to form lipid: DNA complex. • c. Mix by inversion 10 times. • d. Incubate at ambient temperature for 20 minutes to allow complexes to form. • 3). In a sterile, conical tube, mix 1 part of lipid: DNA complex with 20 parts of HEK-293 cells in suspension. Mix gently by inversion 5 times. • 4). Dispense cells+lipid: DNA complex into a sterile tissue culture dish and incubate for 22-24 hours. • 2. Addition of Test Compounds (dry plate shooting): Each test compound is delivered from the compound source plate to the wells of 384-well white NBS plate by Echo 550. • 3. Preparation of Cells with NanoBRET™ Tracer Reagent • 1). Remove medium from dish with transfected HEK-293 cells via aspiration, trypsinize and allow cells to dissociate from the dish. • 2). Neutralize trypsin using medium containing serum and centrifuge at 200× g for 5 minutes to pellet the cells. Adjust the cell density to 2×10^5 cells/mL in Opti-MEM™ without phenol red. • 3). Prepare Complete 20× NanoBRET™ Tracer Reagent with Tracer Dilution Buffer. • 4). Dispense one part of Complete 20× NanoBRET™ Tracer Reagent to 20 parts of cells in the tube. Mix gently by inversion 10 times. • 5). […]

[2] = target: T2, AKT Kinase-NanoLuc fusion in HEK-293 cells (Homo sapiens, UniProt P31749); experiment: NanoBRET target engagement assay in transfected HEK-293 cells, AKT; format: cell-based; details: Table 28, NanoBRET, HEK-293 cells; read-out: AKT1 (Cellular) IC50
T2 construct: host or cells: HEK-293
Excerpt: as §1, §2, §3, §4

T2 sequence (P31749 whole entry, the tested form may be a part): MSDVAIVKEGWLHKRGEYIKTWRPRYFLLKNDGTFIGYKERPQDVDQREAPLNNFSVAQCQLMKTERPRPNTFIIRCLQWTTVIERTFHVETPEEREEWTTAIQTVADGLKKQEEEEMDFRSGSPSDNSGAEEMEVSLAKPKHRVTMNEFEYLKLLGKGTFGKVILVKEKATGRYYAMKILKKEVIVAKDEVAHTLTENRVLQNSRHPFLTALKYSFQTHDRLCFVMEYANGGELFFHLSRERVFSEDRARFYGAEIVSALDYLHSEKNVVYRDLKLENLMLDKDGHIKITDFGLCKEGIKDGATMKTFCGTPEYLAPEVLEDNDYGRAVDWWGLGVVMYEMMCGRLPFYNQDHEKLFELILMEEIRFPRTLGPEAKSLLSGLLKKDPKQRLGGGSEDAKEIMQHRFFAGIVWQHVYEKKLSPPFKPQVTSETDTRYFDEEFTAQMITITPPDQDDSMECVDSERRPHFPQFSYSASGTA

| Structure (SMILES) | IC50 [1] | IC50 [2] |
| --- | --- | --- |
| c1cc(-c2ccc(C3CC4CCC(C3)N4)cc2)c2cc[nH]c2n1 (stereo not shown) [Compound 184, 4-(4-(8-azabicyclo[3.2.1]octan-3-yl)phenyl)-1H-pyrrolo[2,3-b]pyridine] | 57.4 µM | 27.4 µM |
| CC1CC(c2ccc(-c3ccnc4[nH]ccc34)cc2)CC(C)N1 (stereo not shown) [Compound 187, 4-(4-(2,6-dimethylpiperidin-4-yl)phenyl)-1H-pyrrolo[2,3-b]pyridine] | > 50 µM | > 50 µM |
| CC1(c2ccc(-c3ccnc4[nH]ccc34)cc2)CCNCC1 [Compound 201, 4-(4-(4-methylpiperidin-4-yl)phenyl)-1H-pyrrolo[2,3-b]pyridine] | > 50 µM | 7.51 µM |
| Cc1cc(-c2ccnc3[nH]cc(F)c23)ccc1CN [Compound 211, (4-(3-fluoro-1H-pyrrolo[2,3-b]pyridin-4-yl)-2-methylphenyl) methanamine] | 6.37 µM | 22.6 µM |
| NCc1ccc(-c2ccnc3[nH]cc(-c4ccccc4)c23)cc1-c1ccccc1 [Compound 219, (5-(3-phenyl-1H-pyrrolo[2,3-b]pyridin-4-yl)-[1,1′-biphenyl]-2-yl)methanamine] | 0.653 µM | > 50 µM |
| COC(=O)c1c[nH]c2nccc(-c3ccc(CN)cc3)c12 [Compound 223, methyl 4-(4-(aminomethyl)phenyl)-1H-pyrrolo[2,3-b]pyridine-3-carboxylate] | 66.8 µM | > 50 µM |
| Cc1cccc(-c2c[nH]c3nccc(-c4ccc(CN)cc4)c23)c1 [Compound 230, (4-(3-(m-tolyl)-1H-pyrrolo[2,3-b]pyridin-4-yl)phenyl) methanamine] | 5.47 µM | 0.752 µM |
| CC(C)(N)c1ccc(-c2ccnc3[nH]cc(F)c23)cc1 [Compound 238, 2-(4-(3-fluoro-1H-pyrrolo[2,3-b]pyridin-4-yl)phenyl)propan-2-amine] | 1.56 µM | 9.53 µM |
| NCc1ccc(-c2ccnc3[nH]cc(-c4cccnc4)c23)cc1 [Compound 245, (4-(3-(pyridin-3-yl)-1H-pyrrolo[2,3-b]pyridin-4-yl)phenyl) methanamine] | 11.9 µM | 3.45 µM |
| NCc1ccc(-c2ccnc3[nH]cc(-c4ccccc4)c23)cc1 [Compound 253, (4-(3-phenyl-1H-pyrrolo[2,3-b]pyridin-4-yl)phenyl) methanamine] | 2.98 µM | 0.338 µM |

Second part, the molecule after the results:

| IC50 [1] | IC50 [2] | Structure (SMILES) |
| --- | --- | --- |
| 0.714 µM | 3.91 µM | Cc1cc(-c2ccnc3[nH]cc(Cl)c23)ccc1CN [Compound 254, (4-(3-chloro-1H-pyrrolo[2,3-b]pyridin-4-yl)-2-methylphenyl) methanamine] |
| 6.71 µM | > 50 µM | Cc1cc(-c2ccnc3[nH]ccc23)ccc1CN [Compound 266, (2-methyl-4-(1H-pyrrolo[2,3-b]pyridin-4-yl)phenyl) methanamine] |
| > 50 µM | 17.3 µM | c1cc(-c2ccc3c(c2)CCNC3)c2cc[nH]c2n1 [Compound 267, 6-(1H-pyrrolo[2,3-b]pyridin-4-yl)-1,2,3,4-tetrahydroiso-quinoline] |
| > 50 µM | 14.5 µM | c1cc(-c2ccc(C3CCCCN3)cc2)c2cc[nH]c2n1 (stereo not shown) [Compound 271, 4-(4-(piperidin-2-yl)phenyl)-1H-pyrrolo[2,3-b]pyridine] |
| 10.1 µM | 2.06 µM | NCc1ccc(-c2ccnc3[nH]cc(F)c23)cc1 [Compound 275, (4-(3-fluoro-1H-pyrrolo[2,3-b]pyridin-4-yl)phenyl) methanamine] |
| 2.83 µM | 4.14 µM | NCc1ccc(-c2ccnc3[nH]cc(Cl)c23)cc1 [Compound 276, (4-(3-chloro-1H-pyrrolo[2,3-b]pyridin-4-yl)phenyl) methanamine] |
| 34.8 µM | > 50 µM | NCc1ccc(-c2ccnc3[nH]ccc23)cc1C(F)(F)F [Compound 284, (4-(1H-pyrrolo[2,3-b]pyridin-4-yl)-2-(trifluoromethyl)phenyl) methanamine] |
